# Data reported in patent US20050113366A1 (priority 2000, published 2005).
# Structures can show the parent of a compound that is named as a salt. Where two headings read alike, the source gives them in different places.
# Key:
# slow wave sleep = test: EEG study of the duration of slow wave sleep in rats after i.p. injection; format: in vivo, Male Wistar rats; details: for Duration of slow wave sleep: 3 h EEG recording, mean ± SEM; for Increase of the duration of slow wave sleep: versus NaCl
# Text: Male Wistar rats, weighing 200 g at the beginning of the experiment, coming from the Centre d'Elevage Janvier (Route des Chenes-Secs, Le Genest St-Isle, 53940 France) were used for this study.
# After eight days of adaptation to the breeding conditions at the Animalerie Centrale de la Faculte de Medecine (11, rue Humann 67084 Strasbourg), these animals were placed in individual cages (Makrolon type cages 3H, 425×266×150) in a standard (7 a.m./7 p.m.) day/night rhythm, with water and food (UAR ref. A04) continually available to them. The animals were then transferred to an experimentation facility on supports capable of receiving 24 cages.
# The surgical procedure is the following: after one month of becoming accustomed to the (10 a.m./10 p.m.) day/night cycle, the rats are weighed and then anesthetized with ketamine (Imalgene 500 Merial) at a dose of 150 mg/kg i.p. After having placed the animal in a stereotactic frame (Narishige), a rostrocaudal incision is made using a sterilized scalpel (No. 3 blade, Swann-Morton England).
# The parietal bone sutures, Lambda and Bregma, are exposed serve as stereotactic reference (point 0). After having perforated the cranial casing using a dental drill without infringing on the meninges (Minitor Narishige), two stainless steel screws 500 μm in diameter (Magister, 4 rue du Lac 25130 Villers Le Lac) are implanted at the following coordinates: Bregma AP: ±4 mm and ML: ±3 mm.
# Two copper wires are soldered with tin to the screws, on one hand, and to the female connector, on the other hand (VP Electronic, Square de la Poteme, 91302 Massy Cedex). The assembly which is realized is then covered with a polymerizing resin (Paladur, Kulzer, Germany).
# The implanted rats are then placed in their respective cages. A post-operative period greater than 48 h is complied with before any recording.
# All the EEG recordings are made during the first hours of the dark [sic; light] phase (that is, between 10 a.m. and 1 p.m.), which represents the period of awakening and intense activity of the animals.
# The rats are placed in a cage made of Plexiglas (170×170×300), and after a 30 min period of becoming accustomed to their new environment, they are recorded continuously for a duration of 3 h after i.p. injection (2 mL/kg) of 0.9% NaCl or the ligand to be studied. The EEG graph is made using an 8-track recorder (Alvar Electronic, 6 rue du Progres, 93511-Montreuil) with a running speed of 0.5 cm/s.
# The total durations of slow wave sleep for each animal are evaluated in 20 min sections for the total duration of the 3 h recording (1 cm=2 seconds).
# The statistical comparison is made using an analysis of variance test (Anova) followed by a multiple comparison test. […]
# The numbers in parentheses correspond to the percentages of slow wave sleep with respect to the total duration of sleep.
# GHB receptors = GHB receptors (Rattus norvegicus, UniProt P11275); test: Displacement of 3H-GHB binding on rat brain membranes; design: species or system Wistar rats
# Sequence of GHB receptors (P11275 whole entry): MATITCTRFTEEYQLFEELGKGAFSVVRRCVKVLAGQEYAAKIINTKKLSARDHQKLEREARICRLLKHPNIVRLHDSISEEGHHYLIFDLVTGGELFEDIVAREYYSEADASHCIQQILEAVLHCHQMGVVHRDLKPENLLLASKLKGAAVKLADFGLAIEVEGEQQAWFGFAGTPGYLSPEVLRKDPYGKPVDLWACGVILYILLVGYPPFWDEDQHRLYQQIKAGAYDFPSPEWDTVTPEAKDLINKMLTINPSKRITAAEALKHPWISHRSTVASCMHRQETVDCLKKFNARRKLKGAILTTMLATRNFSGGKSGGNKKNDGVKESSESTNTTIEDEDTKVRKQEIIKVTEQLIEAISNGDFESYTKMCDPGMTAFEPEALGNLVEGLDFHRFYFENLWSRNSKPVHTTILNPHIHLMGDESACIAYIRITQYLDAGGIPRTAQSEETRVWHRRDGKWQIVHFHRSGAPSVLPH
# [1] = in cats; cited from earlier work
# [2] = read-out: IC50 (concentration displacing 50% of the reversible binding of 3H-GHB), rat brain membranes, potassium phosphate buffer pH 6.0, 30 min in ice
compound,measurement,setting,value
"O=C(O)CCC(O)c1ccc(Cl)c(Cl)c1 (centres unmarked) [Compound 2, Sodium salt of 4-(3,4 dichlorophenyl)-4-hydroxybutanoic acid]",Percentage of slow wave sleep with respect to the total duration of sleep (in parentheses),slow wave sleep; 0.28 mmol/kg i.p.,23%
same,Duration of slow wave sleep,slow wave sleep; 0.28 mmol/kg i.p.,53 ± 7 min
same,Increase of the duration of slow wave sleep,slow wave sleep; 0.28 mmol/kg i.p.,42 min
"O=C([O-])CCC(O)c1cc2c3c(cccc3c1)CC2.[Na+] (centres unmarked) [Compound 24, Sodium salt of 4-(1,2-dihydroacenaphthylen-4-yl)-4-hydroxybutanoic acid]",IC50,"GHB receptors; affinity for the GHB receptor, repeated in Table 4, read-out: IC50",80 nM
same,IC50,GHB receptors; [2],80 nM
same,Percentage of slow wave sleep with respect to the total duration of sleep (in parentheses),slow wave sleep; 0.15 mmol/kg i.p.,23%
same,Duration of slow wave sleep,slow wave sleep; 0.15 mmol/kg i.p.,53 ± 7 min
same,Increase of the duration of slow wave sleep,slow wave sleep; 0.15 mmol/kg i.p.,42 min
same,Percentage of slow wave sleep with respect to the total duration of sleep (in parentheses),slow wave sleep; 0.28 mmol/kg i.p.,28%
same,Duration of slow wave sleep,slow wave sleep; 0.28 mmol/kg i.p.,61 ± 8 min
same,Increase of the duration of slow wave sleep,slow wave sleep; 0.28 mmol/kg i.p.,50 min
"O=C(O)CCC(O)c1ccc2c(c1)-c1ccccc1C2 (centres unmarked) [Compound 32, Sodium salt of 4-(9H-fluoren-3-yl)hydroxybutanoic acid]",IC50,GHB receptors; [2],300 nM
"CC1(C)Cc2cc(C(O)CCC(=O)O)ccc2NC1=O (centres unmarked) [Compound 40, Sodium salt of 4-(3,3-dimethyl-2-oxo-1,2,3,4-tetrahydroquinolin-6-yl)-4-hydroxybutanoic acid]",IC50,GHB receptors; [2],1100 nM
"O=C(O)CCCO [GHB, γ-hydroxybutyrate]",half-life,[1],approximately one
Sodium salt of 4-hydroxy-4-(phenoxathiin-2 or 3-yl) butanoic acid isomer B [Compound 29],IC50,GHB receptors; [2],900 nM
Sodium salt of 4-hydroxy-4-(phenoxathiin-2 or 3-yl)butanoic acid isomer A [Compound 28],IC50,GHB receptors; [2],100 nM
"Sodium salts of 4-hydroxy-4-(4-oxo-4,5-dihydro-3H-pyridazo(4,5-b)indol-8 and 6-yl)butanoic acids 8/6 isomer mixture [Compound 33]",IC50,GHB receptors; [2],200 nM
